“Also recorded” adds a separate entry of the source. Like-named read-outs stand apart in the source and are kept apart here.
Assays:
[1] = system: CWR-R1, CWR-R1 (10E), CWR-R1-MTX20nM cells; test: Colony formation (clonogenicity) assay; format: cell-based, human; conditions: parental CWR-R1 and drug-resistant counterparts, 14 days
Description: (A) Comparative GI50 values of Gal, NGGAs, and enzalutamide (ENZ) in drug-naïve-/-resistant prostate cancer cells. (B) Gal and NGGAs induce G1 cell cycle arrest in LNCaP cells. (C) VNPP414 and VNPP433-3β deplete the cell cycle regulator, cyclin D1, and upregulate p21; “+” indicates specific treatments. (D) Gal cause dose-dependent depletion of cyclin D1. (E) Unlike ENZ, Gal and VNPP433-3β inhibit colony formation of drug-naïve/-resistant cells in vitro. 1000 cells/well (CWR-R1, CWR-R1 (10E), CWR-R1-MTX20nM), seeded in 6-well plates were treated with indicated concentrations of compounds for a period of 14 days. Media containing compounds were replaced every 3 days. Colonies were stained with 0.05% crystal violet. (F) Quantification of colony formation units (CFU) in drug-naive/resistant cells. Colony assays were repeated three times and colonies counted in four quadrants of the wells. Results are represented as averages with S.E.M. (* p < 0.05, ** p < 0.001). Note: the numbers in parentheses in Figure 2B,C,E are concentrations of the agents in µM.
0.1 × 10^3 cells per well were seeded in 6-well plates and allowed to attach overnight (16 h), cells were treated with compounds in regular media (RPMI with 10% FBS) at the indicated concentrations and replaced every 3rd day for 14 days or until visible colonies could be counted. Colonies were washed and stained with 0.05% crystal violet for 30 min. Colonies were scanned and quantified (colonies counted in four quadrants of each well) with ImageJ colony counter. Results are represented as the mean of triplicates.

LNCaP cells = test: Cell cycle analysis (G1 arrest); format: cell-based, human; conditions: 2.5 µM as effective as Gal at 20 µM
Description: The new NGGAs (VNPP414 and VNPP433-3β) were identified from in vitro anti-proliferative activities of our in-house compounds assessed in several PC cell lines, including LNCaP, C4-2B, and CWR22Rv1 (22Rv1). […] It was recently reported that treatment of AR-expressing bladder cancer cell lines with enzalutamide induced up-regulation of tumor suppressor, p53, p21 and PTEN, and down-regulation of several oncogenic genes, such as c-myc, cyclin D1, and cyclin E [38]. […] We note that these cell-cycle studies were conducted in LNCaP cells. Inhibition of colony formations (clonogenicity assays) was also assessed by treating the parental CWR-R1 cells and two drug-resistant counterparts with Gal, VNPP433-3β, or ENZ.
(A) Comparative GI50 values of Gal, NGGAs, and enzalutamide (ENZ) in drug-naïve-/-resistant prostate cancer cells. (B) Gal and NGGAs induce G1 cell cycle arrest in LNCaP cells. (C) VNPP414 and VNPP433-3β deplete the cell cycle regulator, cyclin D1, and upregulate p21; “+” indicates specific treatments. (D) Gal cause dose-dependent depletion of cyclin D1. (E) Unlike ENZ, Gal and VNPP433-3β inhibit colony formation of drug-naïve/-resistant cells in vitro. […] (F) Quantification of colony formation units (CFU) in drug-naive/resistant cells. Colony assays were repeated three times and colonies counted in four quadrants of the wells. […]

AR-V7 = molecular target: T1, AR-V7 (Homo sapiens, UniProt P10275); test: Protein level decrease by western blot, dose-response in CWR22Rv1 cells; format: cell-based; conditions: for times more effective (than Gal) in degrading AR-V7: from EC50 values
T1 construct: compound treatments (0–7.5 µM) of CWR22Rv1 cells for 72 h followed by western blot analysis of cells lysates; endogenous in cells; host or cells: CWR22Rv1
T1 sequence (P10275 1-644 isoform P10275-3): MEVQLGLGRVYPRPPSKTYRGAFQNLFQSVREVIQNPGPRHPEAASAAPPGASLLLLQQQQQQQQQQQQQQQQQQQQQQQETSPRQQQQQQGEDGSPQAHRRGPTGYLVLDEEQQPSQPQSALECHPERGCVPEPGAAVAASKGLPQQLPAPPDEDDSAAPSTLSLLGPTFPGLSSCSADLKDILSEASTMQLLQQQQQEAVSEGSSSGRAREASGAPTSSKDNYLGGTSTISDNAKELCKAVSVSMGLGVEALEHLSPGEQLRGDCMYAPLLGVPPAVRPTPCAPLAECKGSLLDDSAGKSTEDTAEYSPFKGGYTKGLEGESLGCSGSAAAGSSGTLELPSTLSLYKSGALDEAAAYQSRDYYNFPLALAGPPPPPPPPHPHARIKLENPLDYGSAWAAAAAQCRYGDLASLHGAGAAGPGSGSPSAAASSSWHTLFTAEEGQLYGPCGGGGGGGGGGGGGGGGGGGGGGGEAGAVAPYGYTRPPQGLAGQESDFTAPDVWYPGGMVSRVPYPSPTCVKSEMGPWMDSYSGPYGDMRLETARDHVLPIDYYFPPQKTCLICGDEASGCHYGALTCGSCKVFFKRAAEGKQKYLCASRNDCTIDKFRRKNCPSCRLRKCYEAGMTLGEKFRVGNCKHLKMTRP
Description: Figure 4 Impact of Gal and NGGAs on AR/AR-V7 and Mnk1/2-eIF4E signaling pathways. (A) Western blot showing the effects of Gal and VNPT55 (55) on Mnk1, Mnk2, and peIF4E. […] (D) Western blot showing dose-dependent effect of Gal on Mnk1, Mnk2, BMI-1, and Snail1 in drug-resistant CWR-R1(10E) cells. […] Note: the numbers in parentheses in Figure 4B are concentrations of the agents in µM.
We further determined the effects of lead NGGAs on f-AR, AR-V7 and Mnk1 protein levels in CWR22Rv1 cells.
Cells were lysed with radioimmunoprecipitation assay (RIPA) buffer (Sigma, St. Louis, MO, USA), supplemented with 1X protease inhibitors (Roche, Indianapolis, IN, USA), phosphatase inhibitors (Thermo Scientific, Waltham, MA, USA), 1 mmol/L EDTA and 1 mmol/L PMSF (Sigma).

PC-3 cells = test: Wound-healing cell migration assay; format: cell-based, human; conditions: PC-3, wound healing, 12 h

| SMILES | inhibition of colony formation [1] | improved potency over Gal in G1 cell cycle arrest (LNCaP cells) | DC50 (AR-V7; 0–7.5 µM, 72 h, western blot, read-out: AR-V7 EC50) | times more effective (than Gal) in degrading AR-V7 (AR-V7) | inhibition of cell migration (PC-3 cells) | DC50 (AR-V7; read-out: AR-V7 EC50, 0–7.5 µM, 72 h, western blot) |
| --- | --- | --- | --- | --- | --- | --- |
| C[C@]12CC[C@H](O)CC1=CC[C@@H]1[C@@H]2CC[C@]2(C)C(n3cnc4ccccc43)=CC[C@@H]12 [Galeterone] | markedly inhibited clonogenic ability | – | – | – | – | – |
| C[C@]12CC[C@H](OCc3ccncc3)CC1=CCC1C2CC[C@]2(C)C(n3cnc4ccccc43)=CCC12 (stereo partly shown) [VNPP414] | – | ≥ 8 fold | 1260 ± 50 nM | 3.9 times | significant inhibition of PC-3 cells migration | – |
| C[C@]12CC[C@H](n3ccnc3)CC1=CCC1C2CC[C@]2(C)C(n3cnc4ccccc43)=CCC12 (stereo partly drawn) [VNPP433-3β] | significantly more potent than Gal; also recorded: markedly inhibited clonogenic ability | ≥ 8 fold | – | 3.7 times | significant inhibition of PC-3 cells migration | 1340 ± 330 nM |
